Tests used:
[1] = biological target: T1, Alpha-1D adrenergic receptor (Homo sapiens, UniProt P25100); assay: Inhibition of binding of [125I]HEAT to cloned human alpha-1D adrenergic receptor.
T1 sequence (P25100 whole entry): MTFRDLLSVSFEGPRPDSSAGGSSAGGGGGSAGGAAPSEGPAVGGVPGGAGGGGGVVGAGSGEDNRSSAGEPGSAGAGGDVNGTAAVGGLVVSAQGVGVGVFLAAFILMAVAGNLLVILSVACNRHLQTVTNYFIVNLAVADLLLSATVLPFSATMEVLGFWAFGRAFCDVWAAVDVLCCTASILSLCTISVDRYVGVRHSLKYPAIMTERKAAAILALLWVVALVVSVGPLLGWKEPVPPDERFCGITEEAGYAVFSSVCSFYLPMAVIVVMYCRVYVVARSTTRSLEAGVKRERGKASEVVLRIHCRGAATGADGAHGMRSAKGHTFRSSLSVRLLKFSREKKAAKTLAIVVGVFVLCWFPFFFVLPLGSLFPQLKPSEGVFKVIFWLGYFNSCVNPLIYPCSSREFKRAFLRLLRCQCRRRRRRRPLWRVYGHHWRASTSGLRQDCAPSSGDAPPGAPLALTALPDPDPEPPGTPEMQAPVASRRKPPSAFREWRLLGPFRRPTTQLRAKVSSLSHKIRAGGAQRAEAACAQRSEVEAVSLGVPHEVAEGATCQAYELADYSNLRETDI

[2] = biological target: T2, Alpha-1A adrenergic receptor (Homo sapiens, UniProt P35348); assay: Inhibition of binding of [125I]HEAT to cloned human alpha-1A adrenergic receptor.
T2 sequence (P35348 whole entry): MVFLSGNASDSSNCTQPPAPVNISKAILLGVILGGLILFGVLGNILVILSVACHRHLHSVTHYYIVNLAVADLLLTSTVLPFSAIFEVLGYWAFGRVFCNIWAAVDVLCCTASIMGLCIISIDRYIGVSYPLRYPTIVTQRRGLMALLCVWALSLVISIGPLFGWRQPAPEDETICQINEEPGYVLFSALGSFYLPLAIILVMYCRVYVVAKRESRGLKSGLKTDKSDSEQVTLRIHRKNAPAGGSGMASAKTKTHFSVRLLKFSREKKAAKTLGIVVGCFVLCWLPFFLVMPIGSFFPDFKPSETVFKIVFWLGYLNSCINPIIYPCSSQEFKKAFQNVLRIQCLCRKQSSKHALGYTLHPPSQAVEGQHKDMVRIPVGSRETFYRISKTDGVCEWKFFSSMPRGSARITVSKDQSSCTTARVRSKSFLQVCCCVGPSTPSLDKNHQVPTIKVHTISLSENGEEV

[3] = biological target: T3, Alpha-1B adrenergic receptor (Homo sapiens, UniProt P35368); assay: Inhibition of binding of [125I]HEAT to cloned human alpha-1B adrenergic receptor.
T3 sequence (P35368 whole entry): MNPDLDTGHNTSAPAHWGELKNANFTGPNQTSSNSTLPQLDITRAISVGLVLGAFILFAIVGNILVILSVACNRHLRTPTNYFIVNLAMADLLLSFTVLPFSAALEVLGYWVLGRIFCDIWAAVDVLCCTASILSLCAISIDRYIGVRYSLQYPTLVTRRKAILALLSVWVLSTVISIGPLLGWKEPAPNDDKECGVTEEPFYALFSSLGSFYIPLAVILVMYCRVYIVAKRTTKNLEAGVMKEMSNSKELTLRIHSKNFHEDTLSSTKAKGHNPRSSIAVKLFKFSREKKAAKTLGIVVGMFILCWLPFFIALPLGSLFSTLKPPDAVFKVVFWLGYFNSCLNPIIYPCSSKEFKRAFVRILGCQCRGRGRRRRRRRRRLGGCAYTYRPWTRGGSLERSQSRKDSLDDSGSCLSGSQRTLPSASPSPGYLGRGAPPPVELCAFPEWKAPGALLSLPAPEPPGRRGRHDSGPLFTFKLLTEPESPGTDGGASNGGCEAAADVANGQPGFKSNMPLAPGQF

Row | Compound | Ki [1] [nM] | Ki [2] [nM] | Ki [3] [nM]
1 | Cc1ccc(C(C(=O)NCCCN2CCC(C#N)(c3ccccc3C)CC2)C(C)C)cc1 (stereo not given) | 1100 | 7.4 | 650
2 | N#CC1(c2ccccc2)CCN(CCCNC(=O)C(c2ccccc2)c2ccccc2)CC1 | 3300 | 28 | 840
3 | Cc1ccc(C(C(=O)NCCCN2CCC(C#N)(c3ccccc3C(F)(F)F)CC2)c2ccc(C)cc2)cc1 | 3200 | 22 | 1900
4 | Cc1ccc(C(C(=O)NCCCN2CCC(C(N)=O)(c3ccccc3)CC2)c2ccc(C)cc2)cc1 | 3300 | 570 | 570
5 | COC(=O)C1(c2ccccc2)CCN(CCCNC(=O)Cc2ccc([N+](=O)[O-])cc2)CC1 | 6300 | 75 | 3300
6 | COC(=O)C1(c2ccccc2)CCN(CCCNC(=O)Cc2ccc(C)cc2)CC1 | 3400 | 74 | > 3000
7 | CC(C)C(C(=O)NCCCN1CCC(C#N)(c2ccccc2)CC1)c1ccccc1 (racemic) | 2900 | 72 | 1200
8 | Cc1ccc(C(C(=O)NCCCN2CCN(c3ccccc3)CC2)c2ccc(C)cc2)cc1 | 128 | 12 | 23
9 | COC(=O)C1(c2ccccc2)CCN(CCCNC(=O)C2=C(C)N=C(C)/C(=C(/O)OC)C2c2ccc([N+](=O)[O-])cc2)CC1 (racemic) | 1100 |  | 
10 | N#CC1(c2ccccc2)CCN(CCCNC(=O)C(c2ccccc2)C2CCCC2)CC1 (racemic) | 2300 | 50 | 2000
11 | Cc1ccc(C(C(=O)NCCCN2CCC(c3ccccc3)CC2)c2ccc(C)cc2)cc1 | 230 | 8.8 | 34
12 | COc1ccccc1C1(C#N)CCN(CCCNC(=O)C(c2ccc(C)cc2)c2ccc(C)cc2)CC1 | 710 | 7.5 | 570
13 | Cc1ccccc1C1(C#N)CCN(CCCNC(=O)C(c2ccc(F)c(F)c2)C(C)C)CC1 (single isomer, unassigned; (+)) | 2100 | 2 | 1400
14 | COC(=O)C1(c2ccccc2)CCN(CCCNC(=O)C(C)c2ccc([N+](=O)[O-])cc2)CC1 (stereo not given) | 1700 | 47 | 1700
15 | Cc1ccc(C(C(=O)NCCCN2CCC(C#N)(c3ccccc3C)CC2)c2ccc(C)cc2)cc1 | 1100 | 1.3 | 360
16 | COC(=O)C1(c2ccccc2)CCN(CCCNC(=O)CCc2ccc([N+](=O)[O-])cc2)CC1 | 1300 | 240 | 910
17 | COC(=O)C1(c2ccccc2)CCN(CCCNC(=O)C(c2ccc(C)cc2)c2ccc(C)cc2)CC1 | 960 | 5.1 | 450
18 | Cc1ccc(C(C(=O)NCCCN2CCC(C#N)(c3ccccn3)CC2)c2ccc(C)cc2)cc1 | > 5000 | 25 | > 2000
19 | N#CC1(c2ccccc2)CCN(CCCNC(=O)C(c2ccccc2)C2CCCCC2)CC1 (racemic) | 2500 | 61 | 1100
20 | Cc1ccc(C(C(=O)NCCCN2CCC(C#N)(c3ccccc3)CC2)c2ccc(C)cc2)cc1 | 1400 | 7.3 | > 2000
21 | Cc1ccccc1C1(C#N)CCN(CCCNC(=O)C(c2ccc(F)c(F)c2)C(C)C)CC1 (single isomer, unassigned; (-)) | 2600 | 50 | 1200
22 | COC(=O)C1(c2ccccc2)CCN(CCNC(=O)CCc2ccc([N+](=O)[O-])cc2)CC1 | 1500 | 380 | > 3000
23 | Cc1ccccc1C1(C#N)CCN(CCCNC(=O)C(c2ccc(Cl)cc2)C(C)C)CC1 (stereo not given) | 1300 | 6.4 | 870
24 | Cc1ccc(C(C(=O)NCCCN2CCN(c3ccccc3C)CC2)c2ccc(C)cc2)cc1 | 36 | 1.1 | 6.6
25 | Cc1ccccc1C1(C#N)CCN(CCCNC(=O)C(c2ccc(F)cc2)C(C)C)CC1 (stereo not given) | 2400 | 24 | 960
26 | Cc1ccccc1C1(C#N)CCN(CCCNC(=O)C(c2ccc(F)c(F)c2)C(C)C)CC1 (stereo in doubt; 28) | 1600 | 2 | 900
27 | Cc1ccc(C(C(=O)NCCCN2CCC(c3ccccn3)CC2)c2ccc(C)cc2)cc1 | 3600 | 27 | 670
28 | Cc1ccccc1C1(C#N)CCN(CCCNC(=O)C(c2cccc(F)c2)C(C)C)CC1 (stereo not given) | 2700 | 3.4 | 680
29 | Cc1ccc(C(C(=O)NCCCN2CCC(C#N)(c3ccccc3Cl)CC2)c2ccc(C)cc2)cc1 | 600 | 0.99 | 280
